Values belong to the compound of their own block, whether it stands above or below them.
How the values were obtained:
[1] = tested on: ion channels associated with glutamate receptors; assay: Glutamate-induced uptake of 45Ca into rat brain synaptosomes (calcium-blocking properties); assay type: biochemical; settings: glutamate-induced 45Ca uptake, K(43/21); compound 5 μM; 5 min at 30° C.
Experimental: Evaluation of the calcium-blocking properties of the compounds was conducted with P2-fraction of synaptosomes, which were isolated from the brain of newborn (8-11 days) rats according to the protocol described in [Bachurin et al. Neuroprotective and cognition enhancing properties of MK-801 flexible analogs. Structure-activity relationships.//Ann. N.Y. Acad. Sci., 2001, v. 939, pp. 219-235]. In this test, the ability of the compounds to inhibit a specific uptake of calcium ions via ion channels associated with glutamate receptors was determined.
Synaptosomes were placed into the incubation buffer A (132 mM NaCl, 5 mM KCl, 5 mM HEPES) and were kept at 0° C. during the entire experiment. Aliquots of synaptosomes (50 μl) were placed in the media A, containing investigated compounds and a preparation of the radiolabeled calcium, ^45Ca. The calcium uptake was stimulated by the introduction into the media of the 20 μl of the 10 mM solution of glutamate. After a 5 min incubation at 30° C. the reaction was interrupted by a filtration through GF/B filters, which were then triple washed with the cold buffer B (145 mM KCl, 10 mM tris, 5 mM trilon B). Then, filters were subjects for the detection of the radiolabeled calcium. The measurement was conducted using a scintillation counter ‘SL-4000 Intertechnic”. The initial screening was conducted with a concentration of each compound of 5 μM. A specific calcium uptake was calculated using the following equation
where: • Ca1 is a calcium uptake in a control experiment (no glutamate or test compound added); • Ca2 is a calcium uptake in the presence of glutamate only (Glutamate Induced Calcium Uptake—GICU); • Ca3 is a calcium uptake in the presence of a test compound only (no glutamate added); Ca4 is a calcium uptake in the presence of both glutamate and a test compound.

[2] = tested on: C57/B female mice; assay: Lifespan: amount of alive animals depending on age, Dimebon in drinking water; assay type: in vivo; settings: for Amount of alive animals: 3 mg/kg daily in water
Experimental: (§1) Experiments were conducted with C57/B female mice, starting from their age of 12 months. Mice were kept on cells, 10 animals per a cell. Both control and experimental group included 50 animals in each group. […] The day-night cycle was 12 hours.
(§2) Prior to the experiment, daily and weekly water consumption by the animals in one cell was measured. Dimebon was added in water in such amount that each animal would consume 3 mg/kg of Dimebon per day in average. Bottles with water containing Dimebon were replaced every 7 days. Animals in the control group were receiving pure water.
(§3) Prior to the experiment, all the animals were weighed, and an average weight was determined in every group, every cell, as well as the weight of all animals in every cell. The condition of skin, hair, and eyes were also determined by visual inspection. […] Evaluation of all these parameters was conducted on a monthly basis.
(§4) Statistics was calculated using Student T-test and ‘ Chi-squared’ criteria.
Evaluation of the parameter of the length of life was conducted employing methods used in demography. This parameter was a probability of death in every age group.

[3] = Dynamics in weight of animals depending on age and Dimebon consumption; assay type: in vivo, mice; settings: for average weight of animals: 3 mg/kg daily in water
Experimental: as §1, §2, §3, §4

[4] = tested on: C57/B female mice; assay: Vision disturbances (development of age-related cataract) depending on age and Dimebon consumption; assay type: in vivo; settings: for amount of animals that have cataract: 3 mg/kg daily in water
Experimental: as §1, §2, §3, §4

[5] = tested on: C57/B female mice; assay: Disturbances in skin-hair integument (alopecia) depending on age and Dimebon consumption; assay type: in vivo; settings: for % of animals that have alopecia: 3 mg/kg daily in water
Experimental: as §1, §2, §3, §4

Compound: 2-dimethyl-2,3,4,5-tetrahydro-1H-pyrido(4,3-b)indol methyl iodide [Compound 8]
% Ca to control [1]: 18.0 ± 2.5%

Compound: 2-methyl-5-(2-(6-methyl-3-pyridyl)-ethyl)-2,3,4,5-tetrahydro-1H-pyrido(4,3-b)indol sesquisulfate monohydrate [Compound 5]
% Ca to control [1]: 33.5 ± 1.5%

Compound: CCN1CCc2[nH]c3ccccc3c2C1 [Compound 2, 2-ethyl-2,3,4,5-tetrahydro-1H-pyrido(4,3-b)indol]
% Ca to control [1]: 36.5 ± 0.5%

Compound: c1ccc(CN2CCc3[nH]c4ccccc4c3C2)cc1 [Compound 3, 2-benzyl-2,3,4,5-tetrahydro-1H-pyrido(4,3-b)indol]
% Ca to control [1]: 28.5 ± 2.5%

Compound: Cc1ccc2c(c1)c1c(n2CCc2ccc(C)nc2)CCN(C)C1.Cl.Cl [Compound 6, 2,8-dimethyl-5-(2-(6-methyl-3-pyridyl)-ethyl)-2,3,4,5-tetrahydro-1H-pyrido(4,3-b)indol dihydrochloride]
% Ca to control [1]: 48.5 ± 2.5%
Amount of alive animals ([2]; age 12 months (start), 50 animals per group): 50
Amount of alive animals ([2]; age 13 months): 50
Amount of alive animals ([2]; age 14 months): 49
Amount of alive animals ([2]; age 15 months): 48
Amount of alive animals ([2]; age 16 months): 47
Amount of alive animals ([2]; age 17 months): 47
Amount of alive animals ([2]; age 18 months): 42
Amount of alive animals ([2]; age 19 months): 39
Amount of alive animals ([2]; age 20 months): 35
Amount of alive animals ([2]; age 21 months): 32
Amount of alive animals ([2]; age 22 months): 28
Amount of alive animals ([2]; age 23 months): 25
Amount of alive animals ([2]; age 24 months): 18
Amount of alive animals ([2]; age 25 months): 11
probability of death versus control group ([2]; all age groups, 3 mg/kg daily, significant (P<0.05) at 20-23 months): lower
age-related weight depletion ([3]; 3 mg/kg daily, depletion only in 23 month old animals, variation versus control not significant (P>0.05)): No weight depletion was observed
average weight of animals ([3]; age 12 months (start)): 24.7 g
average weight of animals ([3]; age 13 months): 24.7 g
average weight of animals ([3]; age 14 months): 24.7 g
average weight of animals ([3]; age 15 months): 26 g
average weight of animals ([3]; age 16 months): 25.5 g
average weight of animals ([3]; age 17 months): 24.7 g
average weight of animals ([3]; age 18 months): 25.5 g
average weight of animals ([3]; age 19 months): 26 g
average weight of animals ([3]; age 20 months): 26 g
average weight of animals ([3]; age 21 months): 25.6 g
average weight of animals ([3]; age 22 months): 25.1 g
average weight of animals ([3]; age 23 months): 24.7 g
average weight of animals ([3]; age 24 months): 24 g
average weight of animals ([3]; age 25 months): 23.7 g
amount of animals that had cataract versus control group ([4]; 3 mg/kg daily, P<0.05 for 13 to 20 months old mice): significantly less
amount of animals that have cataract ([4]; age 12 months (start)): 0%
amount of animals that have cataract ([4]; age 13 months): 0%
amount of animals that have cataract ([4]; age 14 months): 0%
amount of animals that have cataract ([4]; age 15 months): 4%
amount of animals that have cataract ([4]; age 16 months): 6%
amount of animals that have cataract ([4]; age 17 months): 6%
amount of animals that have cataract ([4]; age 18 months): 10%
amount of animals that have cataract ([4]; age 19 months): 13%
amount of animals that have cataract ([4]; age 20 months): 17%
amount of animals that have cataract ([4]; age 21 months): 25%
% of animals that have alopecia ([5]; age 12 months (start)): 0%
% of animals that have alopecia ([5]; age 13 months): 0%
% of animals that have alopecia ([5]; age 14 months): 2%
% of animals that have alopecia ([5]; age 15 months): 6%
% of animals that have alopecia ([5]; age 16 months): 10%
% of animals that have alopecia ([5]; age 17 months): 20%
% of animals that have alopecia ([5]; age 18 months): 12%
% of animals that have alopecia ([5]; age 19 months): 14%
% of animals that have alopecia ([5]; age 20 months): 34%
% of animals that have alopecia ([5]; age 21 months): 35%
development of non-fatal pathologies, such as loss of vision and alopecia ([5]; old animals fed Dimebon 3 mg/kg daily, alopecia difference 13th-21st month P<0.05): slowing of the development

Results, then the compound that gave them:

% Ca to control [1]: 22.5 ± 3.5%
Compound: Cc1ccc2c(c1)c1c(n2Cc2ccccc2)CCN(C)C1.Cl.Cl [Compound 4, 2,8-dimethyl-5-benzyl-2,3,4,5-tetrahydro-1H-pyrido(4,3-b)indol dihydrochloride]

% Ca to control [1]: 35.5 ± 2.5%
Compound: CN1CCc2[nH]c3ccccc3c2C1 [Compound 7, 2-methyl-2,3,4,5-tetrahydro-1H-pyrido(4,3-b)indol]

% Ca to control [1]: 30.0 ± 3.5%
Compound: CN1CCc2[nH]c3ccc(Br)cc3c2C1.Cl [Compound 9, 2-methyl-8-bromo-2,3,4,5-tetrahydro-1H-pyrido(4,3-b)indol hydrochloride]

Reference: US20080234310A1, “Methods and Compositions for Slowing Aging” (priority 2003, published 2008)
